Results reported in US9951055B2, “Thiazole-based inhibitors of scavenger receptor BI” (THE BROAD INSTITUTE, INC., priority 2012, dated 2018).
Positions count from the first letter of the chain named.

Legend:
[1] = molecular target: T1, murine SR-BI (Mus musculus, UniProt Q61009); assay: DiI-HDL uptake assay (primary assay); assay type: cell-based
T1 construct: expressed in transfected cells; host or cells: ldlA[mSR-BI]; (CHO ldlA7 derivative lacking the LDL receptor)
T1 sequence (Q61009 1-509): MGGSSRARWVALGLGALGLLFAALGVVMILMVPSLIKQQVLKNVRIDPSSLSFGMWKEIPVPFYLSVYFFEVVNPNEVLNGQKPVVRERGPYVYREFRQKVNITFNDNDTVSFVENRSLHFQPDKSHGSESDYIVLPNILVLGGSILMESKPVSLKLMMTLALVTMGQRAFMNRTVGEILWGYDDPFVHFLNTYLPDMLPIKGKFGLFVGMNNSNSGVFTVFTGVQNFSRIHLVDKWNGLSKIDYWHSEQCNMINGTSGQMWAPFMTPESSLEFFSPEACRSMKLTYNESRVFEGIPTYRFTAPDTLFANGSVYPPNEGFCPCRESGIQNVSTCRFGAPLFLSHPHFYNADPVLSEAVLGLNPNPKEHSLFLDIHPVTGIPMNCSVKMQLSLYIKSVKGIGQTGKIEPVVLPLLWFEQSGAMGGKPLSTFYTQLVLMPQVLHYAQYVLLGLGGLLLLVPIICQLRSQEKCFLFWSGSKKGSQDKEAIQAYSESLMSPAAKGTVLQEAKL
From the text: The following cell lines were used in this study: • ldlA[mSR-BI] is a Chinese hamster ovary (CHO) cell line that overexpresses murine SR-BI, isoform 1 (NP_058021) and was obtained from the Assay Provider (Krieger Laboratory). This cell line was used for the primary assay and several secondary assays. […] This cell line was obtained from the Assay Provider. Assays DiI-HDL Uptake Assay (Primary Assay AID Nos. 488896, 493194, 540354 588392, 588553, 588548, 588754, 588828, 588833)
ldlA[mSR-BI]cells were plated into 384-well plates at 30 μl per well and incubated overnight. As a measurable surrogate for cholesterol uptake, human HDL particles were treated with the lipophilic fluorescent dye DiI and exposed to ldlA[mSR-BI]cells in lipoprotein-free media (Ham's F12/0.5% fatty acid-free Bovine Serum Albumin (BSA)/25 mM HEPES pH 7.4 plus 10 μg protein/ml DiI-HDL). Cells took up the DiI via SR-BI over 3 hours in the presence of compound. After significant uptake of the DiI, the cells became fluorescent. The level of fluorescence correlates with the amount of DiI uptake and can be measured with a standard plate reader (here a PerkinElmer EnVision plate reader was used). The uptake of lipid (represented by DiI) was inhibited by the positive control compound BLT-1 or with an excess of HDL untreated with DiI. Primary HTS data were analyzed in Genedata Screener Assay Analyzer, and were normalized against DMSO and the positive control (1 μM BLT-1). For the HTS, the average of two replicates was used to rank order activity and to choose compounds for retests. For dose studies, percent (%) activity was determined for each concentration and the concentration response curves (CRCs) were generated with Genedata Condeseo.
To identify novel inhibitors, SR-BI-mediated lipid uptake was measured in an engineered cell line that minimized potential uptake by other mechanisms, including via the LDL receptor (1). ldlA[mSR-BI]cells overexpress murine isoform 1 and selectively take up HDL lipid at similar levels as “has been reported for cultured mouse adrenal cells, perfused organs, and liver, adrenal gland and ovary in vivo” (1). This primary cell-based assay was used in a pilot screen that identified BLTs 1 through 5 (12). The assay was slightly modified from the original protocol of Nieland et al. to increase throughput and to ease automation procedures.

[2] = molecular target: T2, murine SR-BI with the C384S mutation (Mus musculus, UniProt Q61009, C384S); assay: Mutant SR-BI cholesterol efflux assay; assay type: cell-based
T2 construct: expressed in transfected cells; host or cells: CHO cell line lacking LDL receptors (variant of ldlA[mSR-BI])
T2 sequence (Q61009 1-509 C384S): T1 sequence (Q61009 1-509) with C384S
Protocol: Mutant SR-BI Cholesterol Efflux Assay (SA 10: AID Nos. 588843, 602138)
BLT-1 is known to interact at cysteine 384 of SR-BI (16). […] This assay is used to determine if the compounds work in a similar fashion to BLT-1 and require Cys384 to alter the efflux of free cholesterol to HDL.
On Day 0, 50,000 cells expressing murine SR-BI with the C384S mutation per well were plated in 24-well plates. On the following day, […] On Day 1, the medium was replaced with Ham's F12 medium supplemented with 10% bovine lipoprotein deficient serum with 1 μCi/ml [1,2-^3H]cholesterol (40-60 Ci/mmol). On Day 3, the cells were washed to remove serum and incubated in Ham's F12 plus 1% fatty acid-free BSA. On Day 4, the cells were washed and pretreated with compounds for 1 hour. Subsequently, the cells were incubated for an additional 2 hours with the same concentrations of small molecules and with unlabeled HDL (final HDL concentration of 100 μg protein/ml). […] The amount of [^3H]cholesterol in the medium and within cells was calculated using liquid scintillation counting. Total cellular [^3H]cholesterol was determined as the sum of the radioactivity in the efflux medium plus the radioactivity in the cells and was used to calculate the [^3H]cholesterol efflux (percent of total [^3H]cholesterol released into the medium).

| Structure (SMILES) | reduction in signal (DiI-HDL uptake) ([1]; 1 μM, positive control in primary HTS) | efflux of cholesterol in Cys384Ser mutant background [2] | higher potency than ITX-5061 [1] | improved potency over the original hit [1] | selectivity [1] | IC50 ([1]; read-out: IC50, DiI-HDL uptake) |
| --- | --- | --- | --- | --- | --- | --- |
| CCCCCCC1CCCC1=NNC(N)=S (stereo not shown) [BLT-1, reference compound] | > 2.2 fold | does not significantly reduce uptake of HDL or efflux of cholesterol |  |  |  |  |
| COCC(=O)N1CCc2cc(-c3csc(NC(=O)c4cc(OC)cc(OC)c4)n3)ccc21 [Compound 137, 3,5-Dimethoxy-N-(4-(1-(2-methoxyacetyl)indolin-5-yl)thiazol-2-yl)benzamide] |  | can reduce uptake and efflux in the mutant background | approximately 15 fold | > 20 fold | greater than 1000 | 2 nM |
